Where two headings read alike, the source gives them in different places.
Key:
[1] = test system: murine endothelial cells exposed to Gamma-Interferon and TNF (nitric oxide production); assay: Inhibition of nitrite production by MBEC exposed to IFN (100 U/ml) and TNF (500 U/ml); format: cell-based; details: for IC50: Mus musculus, Endothelial cell, 48 h, read-out: ED50% (effective dose that inhibited 50% of the nitrite production); for potency ranking as inhibitor of nitric oxide production: analogs of Table 5
Protocol: Endothelial cells--MBEC's were isolated from murine brain microvessels and cultured on gelatin-coated tissue culture dishes in DME/F12 media supplemented with 2% PPPHS, 5% FBS (Hyolone), 50 μg/ml ECGF (Biomed Tech), and 10 U/ml heparin (Sigma) as previously described (Belloni et al. 1989). The endothelial derivation of MBEC's was determined by the presence of a non-thrombogenic surface to platelets and immunofluorescent staining for Factor VIII related antigen. MBEC's were used between passage 6-9 for all experiments.
Nitrite Assay--MBE cells were cultured on gelatin-coated well plates (Corning) in 100 μl of culture medium and treated with cytokines at 3 days post-confluence. After 48 hours, nitrite production was determined by a colorimetric assay. […] All treatments were performed in triplicate and data presented as the mean value±standard deviation. […]
production by murine endothelial cells exposed to GammaInterferon (100
U/ml) and TNF (500 U/ml) in vitro.

rabbit aortic rings = assay: ACh-induced relaxation of isolated rabbit aortic rings; details: isolated rabbit aortic rings, FIG. 9b
Description: FIG. 9b compares concentration-response relationships for the same set of mono- and disubstituted arginine analogs as FIG. 9a, plus an additional dimethyl analog with the two methyl groups on different guanidino nitrogens. The test is for inhibition of ACh-induced vasorelaxation in isolated rabbit aortic rings. The points plotted represent means±S.E. of the maximum responses to ACh observed in the presence of the indicated concentrations of analogs (n=4).
Guinea pig pulmonary artery (GP PA), rat and rabbit aorta (Ao), and dog coronary (CA) and femoral artery (FA) were precontracted with NE (1 μM) and relaxed with a single concentration of ACh. Concentration of ACh: GP PA 1 μM, rat Ao […], rabbit Ao 0.3, dog CA […] and […] 0.1 μM. […] The concentrations of L-citrulline (L-cit), D-arginine (D-arg) and L-arginine (L-arg) were all 0.5 mM. Bars are mean values±SEM (n=4-6).
FIG. 11 contains representative physiograph tracings which depict ACh-induced relaxation of NE-preconstricted rings prepared from rabbit aorta (upper panel) and human internal mammary artery (lower panel).

[2] = test system: bovine aortic endothelial cells (BAEC); assay: A23187-stimulated nitrite release from bovine aortic endothelial cells; format: cell-based; details: 2-hr, L-arginine-free medium, FIG. 9a
Protocol: The % inhibition of relaxation is calculated from the maximum ACh-induced relaxation observed in the presence of the arginine analog relative to that in its absence. Points represent mean values±SEM (n=4-6). […] Another N^G substitution tested for inhibition of induced nitrite release had two methyl groups on one of the arginine guanidino nitrogens. Concentration-response relationships for inhibition of A23187-stimulated nitrite release by bovine aortic endothelial cells (BAEC) are shown in FIG. 9a for the N,N-disubstituted derivative in comparison with several monosubstituted derivatives. Nitrite production was measured as an indication of nitric oxide synthesis since nitric oxide spontaneously decays to nitrite. Nitrite production by BAEC in a 2-hr. period was assessed in an L-arginine-free medium alone or in the presence of the indicated concentration of arginine analogs. The points plotted represent means±S.E. of the percent inhibition of nitrite production observed in 3 individual BAEC culture wells. The key on FIG. 9a indicates the groups substituted on the guanidino nitrogens of L-arginine.
Points are mean values±SEM (n=3).

[3] = test system: guinea pig pulmonary artery rings; assay: Relaxation of preconstricted guinea pig pulmonary artery rings; details: for inhibition of EDRF/NO synthesis: guinea pig pulmonary artery rings, 1 μM NE, ACh
anesthetized guinea pig = assay: Pressor effect in the anesthetized guinea pig; format: in vivo; details: 1-10 mg/kg i.v. (L-NMA)
Description: Points are mean changes in diastolic arterial pressure (±SEM; n=4-5). Control systolic and diastolic BP was 75±3 and 51±3 mm Hg, respectively.

[4] = target: EMT6 enzyme system (NO formation from L-arginine) (Mus musculus, UniProt P29477); assay: Arginine-dependent nitrite synthesis by cytosol of stimulated EMT6 cells; format: biochemical, murine
Protocol: Thus EMT6 cytosolic preparations (i.e., cell-free solutions) were prepared and an enzyme activity was characterized which forms NO and citrulline from arginine. This reaction requires NADPH (FIG. 18 and 19) and other cofactors.
Incubation mixtures were 100 μl total volume containing: 40 μl cytosol (100,000×g supernatant), 2 mM L-arginine, 2 mM NADPH, 20 mM TRIS (pH 8.0) and a "cocktail" of protease inhibitors.
From kinetic studies an apparent Michaelis-Menton constant for L-arginine utilization by the enzyme was deduced. FIG. 20 is a Lineweaver-Burke plot for synthesis of nitrite from L-arginine by cytosol from stimulated EMT6 cells. The rate of nitrite formation was evaluated over a range of L-arginine (ARG) concentrations (from 0.03-2.0 mM) under conditions similar to that described for FIG. 18, except that incubates contained 50 μl cytosol in a total volume of 80 μl. Open and filled circles represent results obtained with each of two cytosol preparations. […] N^G -substituted arginine analogs were screened for precise quantitation of their ability to inhibit arginine-dependent NO formation by the EMT6 enzyme system.

L929 cells = assay: Cytolytic activity of rh-TNF against Actinomycin D-treated L929 cells; format: cell-based, murine; details: murine L929 cells, in vitro
Protocol: TNF bioactivity was measured by the cytotoxicity towards murine L929 cells, in vitro.

[5] = test system: systemic hypotension mediated by interleukin-1; assay: Interleukin-1 mediated systemic hypotension; format: in vivo; details: FIG. 27
lethal ET shock animal = assay: Reversal of lethal-dose endotoxin shock by N^G-aminoarginine; format: in vivo
Protocol: The reversal of ET shock (lethal dose) by N^G -aminoarginine (NAA) for 4 hrs. […] FIG. 26 depicts systemic arterial pressure (SAP) versus time (min). ET (2 mg/kg), a lethal dose, was infused over 60 min. and NAA administered at 97, 165, and 374 min. to maintain blood pressure. The animal was survived for 24 hours and then autopsied.

[6] = test system: mongrel dogs with TNF-induced hypotension; assay: TNF-induced hypotension in anesthetized dogs; format: in vivo, dog; details: dog, FIG. 25
Protocol: Recombinant human TNF specific activity 2×10^7 units/mg, was from the Niposn Chemical Corporation, Tokyo, Japan. TNF was administered at a dose of 10 mcg/kg in a volume of 10 ml of phosphate buffered saline containing 2 mgs/ml of dog albumin. […] Arginine was obtained from Sigma Chemical Company, St. Louis, Mo.
Four conditioned mongrel dogs, 2 males and 2 females, weighing 28 to 30 kgs, were studied. Care of the animals were in accordance with the recommendation of the American Association for Accreditation of Laboratory Animals [DHEW(DHHS) publication no. (NIH) 78-23, revised, 1978]. On the day of the experiment, the dogs were fasted overnight. They were anesthetized with phenobarbital (10 mg/kg). They were then intubated orally with a #10 fr. endotracheal tube and ventilated with a Harvard pump ventilator at a rate of 12 breaths per minute and a tidal volume of 15 ml/kg. An arterial line was percutaneously placed in the femoral artery on the day of the experiment.
Mean (electronic) and phasic systemic arterial pressures (SAP) were continuously recorded on a Hewlett-Packard recording system (model 7758B) using strain gauge manometers (Hewlett-Packard model 1290A) which were connected to the arterial line. Heart rate (HR) was determined from an EKG tracing and continuously recorded on the Hewlett-Packard recording system. Oxyhemoglobin saturation (SaO2) was obtained using a pulse oximeter (BIOX 111, Boulder, Colo.). continuous time-series records of SAP, HR, and SaO2 were obtained using a Lab Master analog-to-digital convertor (16 channel, 12 bit, 30 kHz; Scientific Solutions, Inc.) sampling at 55 Hz and storing the 6 sec averages on a magnetic disk.

[7] = test system: isolated guinea pig heart; assay: Histamine-induced nitrite release and coronary flow in isolated perfused guinea pig heart; details: histamine-elicited
Protocol: Histamine was administered as a rapid bolus injection into the aorta and net nitrite release during the subsequent 2.5 minutes was determined.

[8] = test system: nitroglycerin-treated dogs; assay: Nitroglycerin-induced hypotension in dogs (Example 4); format: in vivo, dog; details: Table 1, Study 2: Nitroglycerin-treated (n = 3)
Protocol: Animals: Studies were carried out on 12 conditioned mongrel dogs (9 males and 3 females) weighing 22-32 kg (avg=25.3 kg). Animal care was in accordance with the recommendations of the American Association for Accreditation of Laboratory Animal Care, and met all standards prescribed by the Guide for the Care and Use of Laboratory Animals (Guide for the Care and Use of Laboratory Animals (1978) Dept. of Health, Education and Welfare, Washington, D.C. (Publ. No. 78-23). Animal protocols were approved by The University of Texas Animal Welfare Committee. The dogs were fasted overnight prior to the day of experimentation. They were anesthetized with sodium pentobarbital (25 mg/kg I.v.). Dogs were then endotracheally intubated and ventilated with a piston-driven respirator (Harvard instruments) using room air at a tidal volume of 20 ml/kg and at a rate of 10 to 12 breaths per minute, adjusted to achieve a normal arterial pH and pCO2 (Instrumentation Laboratories 1L13012 pH/Blood Gas Analyzer). Catheters were placed percutaneously into the femoral and pulmonary arteries; In the latter, a flow-directed thermal-dilation catheter was used (Abbott Critical Care Systems).
Physiologic measurements: Mean SAP and heart rate were continuously monitored (Parametron 7048 Monitoring System, Roche) and stored on a magnetic disk using an analog-to-digital converter (Scientific Solutions, Inc.). Cardiac output (CO) was determined as the mean of six measurements by thermal-dilution. Systemic vascular resistance was calculated as (SAP X80)/CO and expressed as […].
Protocol: After the blood pressure and heart rate stabilized, endotoxin (40 ug/kg, in 10 ml of phosphate-buffered saline (PBS), pH 7.4) was infused i.v. over 2 minutes. This dose of endotoxin typically induces severe and often lethal cardiovascular collapse in the dog. Blood pressure was monitored, and when either SAP fell below 60 mmHg or a stable nadir in systemic arterial pressure (SAP) was maintained for 10 minutes, L-NMA was administered (20 mg/kg in 5 ml of PBS i.v. over 1 min.). In most experiments, L-arginine (400 mg/kg in 20 mi PBS) was administered ten minutes later by i.v. infusion over 2 minutes. In control experiments, dogs without prior exposure to endotoxin received L-NMA alone. To simulate the hypotension observed in dogs receiving endotoxin, one group of dogs received a continuous i.v. infusion of nitroglycerin (2 mg/ml) at a rate adjusted to maintain the SAP at 60-70 mm Hg. Nitroglycerin-treated dogs then received L-NMA (20 mg/kg) and 20 minutes later L-arginine was administered […].
In an additional series of experiments, blood pressure was reduced to 65 mm Hg by continuous i.v. infusion of nitroglycerin, a hypotensive agent that forms NO by an L-arginine and NO synthetase-independent mechanism.

[9] = test system: murine brain endothelial cells (MBEC); assay: Nitrite production by MBEC exposed to cytokines / immunomodulators (Griess assay); format: cell-based; details: IFN 100 U/ml, TNF 500 U/ml, IL-1 10 U/ml, endotoxin 1 μg/ml; 48 hours
[10] = murine endothelial cells, Gamma-Interferon (100 U/ml) and TNF (500 U/ml), in vitro

Sequence of EMT6 enzyme system (NO formation from L-arginine) (P29477 whole entry): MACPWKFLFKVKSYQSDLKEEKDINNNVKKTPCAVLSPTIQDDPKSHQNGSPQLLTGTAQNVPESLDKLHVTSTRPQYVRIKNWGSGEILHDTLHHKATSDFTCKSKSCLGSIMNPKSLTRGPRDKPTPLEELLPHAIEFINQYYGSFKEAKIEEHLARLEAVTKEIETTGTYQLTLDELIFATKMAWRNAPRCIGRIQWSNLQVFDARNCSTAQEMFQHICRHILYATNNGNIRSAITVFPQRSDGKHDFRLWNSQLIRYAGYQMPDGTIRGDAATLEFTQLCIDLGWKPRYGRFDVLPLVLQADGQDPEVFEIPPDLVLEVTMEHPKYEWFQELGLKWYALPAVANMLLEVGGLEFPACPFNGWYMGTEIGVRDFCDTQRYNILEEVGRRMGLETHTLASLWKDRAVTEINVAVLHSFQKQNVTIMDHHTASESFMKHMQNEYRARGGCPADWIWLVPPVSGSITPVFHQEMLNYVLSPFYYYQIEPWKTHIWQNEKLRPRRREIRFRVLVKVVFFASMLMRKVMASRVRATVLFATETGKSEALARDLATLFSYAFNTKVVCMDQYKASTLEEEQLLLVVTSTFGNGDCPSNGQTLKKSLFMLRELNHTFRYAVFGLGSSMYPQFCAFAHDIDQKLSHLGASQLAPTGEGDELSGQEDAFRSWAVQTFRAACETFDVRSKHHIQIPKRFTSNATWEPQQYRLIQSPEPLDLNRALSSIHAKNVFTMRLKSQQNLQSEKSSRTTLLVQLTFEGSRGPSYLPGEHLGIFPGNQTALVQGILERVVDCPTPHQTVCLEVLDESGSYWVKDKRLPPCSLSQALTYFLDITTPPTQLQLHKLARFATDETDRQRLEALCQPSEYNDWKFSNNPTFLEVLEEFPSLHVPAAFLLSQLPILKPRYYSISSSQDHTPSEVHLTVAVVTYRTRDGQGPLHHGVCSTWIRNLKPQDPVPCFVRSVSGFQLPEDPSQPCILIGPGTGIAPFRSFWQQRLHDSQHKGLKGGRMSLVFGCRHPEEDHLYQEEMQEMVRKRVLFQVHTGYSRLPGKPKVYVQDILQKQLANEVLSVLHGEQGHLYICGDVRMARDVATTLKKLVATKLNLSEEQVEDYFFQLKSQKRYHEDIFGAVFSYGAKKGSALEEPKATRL

COC(=O)[C@H](N)CCCNC(=N)N[N+](=O)[O-] [Nitro-D-Arginine methyl ester]
IC50 [1]: > 4500 µM

CN(C)C(=N)NCCC[C@H](N)C(=O)O [Me,Me--]
inhibition of ACh-induced vasorelaxation (rabbit aortic rings): active inhibitor
potency for inhibition of A23187-stimulated nitrite release [2]: approximately equipotent to L-N^G -methylarginine
inhibition of EDRF/NO synthesis [3]: served as inhibitors of EDRF/NO synthesis

CCNC(=N)NCCC[C@H](N)C(=O)O [L-N^G -ethylarginine (L-NEA), L-N^G -ethylarginine]
effect on diastolic BP / pressor effect (words) (anesthetized guinea pig): sustained pressor effect
mode of inhibition ([4]; Lineweaver-Burke): competitive inhibitor
fold less active than NMMA ([4]; compared with NMMA, FIG. 22): approximately 10 -fold

COC(=O)[C@@H](N)CCCNC(=N)N[N+](=O)[O-] [Nitro-L-Arginine methyl ester]
IC50 [1]: 1830 µM

N=C(NN)NCCC[C@H](N)C(=O)O [Aminoarginine, L-N^G -aminoarginine]
effect on cytolytic effect of TNF towards tumor cells (L929 cells): did not alter the cytolytic effect of TNF
IC50 [1]: 110 µM
potency ranking as inhibitor of nitric oxide production [1]: most potent inhibitor of nitric oxide production measured thusfar
potency ranking as inhibitor of nitric oxide production ([1]; listed as N^G -aminoarginine): most potent derivative tested
reversal of IL-1 mediated hypotension [5]: reverse systemic hypotension
survival (lethal ET shock animal; ET 2 mg/kg, multiple NAA doses, then autopsied): 24 h
pathological changes at autopsy (lethal ET shock animal; liver, lungs, heart, brain, bowel or kidney): No pathological changes
activity ranking in inhibition of ACh-induced relaxation ([3]; compounds tested thus far): greatest activity
inhibition of EDRF/NO synthesis [3]: served as inhibitors of EDRF/NO synthesis
effectiveness in reversing TNF hypotension vs NMMA [6]: more effective than NMMA

N=C(NCCC[C@H](N)C(=O)OCc1ccccc1)N[N+](=O)[O-] [Nitro-L-Arginine benzyl ester]
IC50 [1, 10]: > 1200 µM

CNC(=N)NCCC[C@@H](N)C(=O)O [D-NMA, reference compound]
inhibition of EDRF/NO synthesis [3]: not an inhibitor of EDRF/NO synthesis

NCCc1c[nH]cn1 [histamine, reference compound]
effect on coronary flow (vasodilation) [7]: dose-dependent increase in coronary flow

N=C(NCCC[C@@H](N)C(=O)O)N[N+](=O)[O-] [Nitro-D-Arginine]
IC50 [1, 10]: > 4500 µM

O=[N+]([O-])OCC(CO[N+](=O)[O-])O[N+](=O)[O-] [Nitroglycerin]
Cardiac Output [8]: 2.72 ± 0.27 L/min
Heart Rate [8]: 137.3 ± 5.0 beats/min
Systemic Arterial Pressure [8]: 64.7 ± 2.7 mmHg
Systemic Vascular Resistance [8]: 1924 ± 132 dynes-sec/cm^5

CC(=O)N[C@H]1C(O)O[C@H](CO)[C@@H](O)[C@@H]1O[C@H](C)C(=O)N[C@@H](C)C(=O)N[C@H](CCC(=O)O)C(N)=O (stereo partly shown) [muramyl dipeptide (MDP), muramyl dipeptide, reference compound]
effect on nitrite production by MBEC [9]: Neither muramyl dipeptide (MDP) or Il-2 alone, or in combination with IFN effected nitrite production

N=C(NCCC[C@H](N)C(=O)O)N[N+](=O)[O-] [Nitro-L-Arginine, N^G -nitroarginine]
IC50 [1, 10]: 2120 µM
inhibition of EDRF/NO synthesis [3]: served as inhibitors of EDRF/NO synthesis

CN=C(NC)NCCC[C@H](N)C(=O)O [Me,Me'--]
inhibition of ACh-induced vasorelaxation (rabbit aortic rings): not a good inhibitor

B1: IFN: recombinant murine gamma-interferon (protein, UniProt P01580 23-155, looked up)
Interferon gamma: HGTVIESLESLNNYFNSSGIDVEEKSLFLDIWRNWQKDGDMKILQSQIISFYLRLFEVLKDNQAISNNISVIESHLITTFFSNSKAKKDAFMSIAKFEVNNPQVQRQAFNELIRVVHQLLPESSLRKRKRSRC
effect on nitrite production by MBEC [9]: no effect
